Results: patent US8741849B2, “Kinase inhibitors and uses thereof” (priority 2007, dated 2014)
Where no end group is shown, it is not given here.

How the values were obtained:
[1] = test system: AMPK (r); test: kinase profiler assay (radiometric); type: biochemical, rat; conditions: @ = 100 μm peptide; less than 100 = kinase inhibition, greater than 100 = stimulation
Text: KIP peptides […] [SEQ ID NO: 142], […] [SEQ ID NO: 173], and […] [SEQ ID NO: 163] were utilized to profile a variety of different kinases. The kinase profiler assay services provided by Upstate, a part of Millipore Corporation (Billerica, Mass.), were utilized to conduct the kinase profiles. The kinase profiler assays, which are radiometric, are based on measuring the amount of radioactive transfer from an ATP (y-^33P-ATP) to a substrate peptide using known concentrations of kinase enzyme, inhibitor, ATP, and buffer at defined time points and temperatures. Details on the reaction conditions for each kinase are available at www.millipore.com/drugdiscovery/dd3/KinaseProfiler. […] ROCK-1(h) (5-10 mU) was incubated with 8 mM MOPS pH 7.0, 0.2 mM EDTA, 30 i.IM of the peptide […] [SEQ ID NO: 189], 10 mM Mg acetate and y-^33P-ATP (specific activity approximately 500 cpm/pmol, concentration as required) in a final reaction volume of 25 pl. The reaction was initiated by the addition of the MgATP mixture in the absence and presence of inhibitor compounds. […] The filtermat was washed three times for 5 minutes in 75 mM phosphoric acid, once in methanol, dried and counted by scintillation counting. […] Scintillation counts (radioactivity) directly correlate with kinase activity. […]

[2] = target: T1, PKB β (h) (Homo sapiens, UniProt P31751); test: kinase profiler assay (radiometric); type: biochemical; conditions: read-out: Profile-1, PKB β (h)
T1 construct: purchased Upstate (Millipore) KinaseProfiler service
T1 sequence (P31751 whole entry): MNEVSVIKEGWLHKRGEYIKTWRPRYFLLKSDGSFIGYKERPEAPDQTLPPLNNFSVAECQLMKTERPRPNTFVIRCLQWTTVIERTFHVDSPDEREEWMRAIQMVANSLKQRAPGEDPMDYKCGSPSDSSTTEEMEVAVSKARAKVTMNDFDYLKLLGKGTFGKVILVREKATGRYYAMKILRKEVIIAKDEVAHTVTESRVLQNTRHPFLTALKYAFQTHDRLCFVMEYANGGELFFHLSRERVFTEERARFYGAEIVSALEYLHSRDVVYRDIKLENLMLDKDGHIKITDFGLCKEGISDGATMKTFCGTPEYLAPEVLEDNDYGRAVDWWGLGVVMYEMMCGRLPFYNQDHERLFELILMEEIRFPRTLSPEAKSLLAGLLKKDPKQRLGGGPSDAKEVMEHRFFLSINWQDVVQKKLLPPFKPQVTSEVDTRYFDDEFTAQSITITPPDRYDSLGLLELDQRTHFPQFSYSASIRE
Text: KIP peptides […] [SEQ ID NO: 142], […] [SEQ ID NO: 173], and […] [SEQ ID NO: 163] were utilized to profile a variety of different kinases. The kinase profiler assay services provided by Upstate, a part of Millipore Corporation (Billerica, Mass.), were utilized to conduct the kinase profiles. The kinase profiler assays, which are radiometric, are based on measuring the amount of radioactive transfer from an ATP (y-^33P-ATP) to a substrate peptide using known concentrations of kinase enzyme, inhibitor, ATP, and buffer at defined time points and temperatures. Details on the reaction conditions for each kinase are available at www.millipore.com/drugdiscovery/dd3/KinaseProfiler. […] ROCK-1(h) (5-10 mU) was incubated with 8 mM MOPS pH 7.0, 0.2 mM EDTA, 30 i.IM of the peptide […] [SEQ ID NO: 189], 10 mM Mg acetate and y-^33P-ATP (specific activity approximately 500 cpm/pmol, concentration as required) in a final reaction volume of 25 pl. The reaction was initiated by the addition of the MgATP mixture in the absence and presence of inhibitor compounds. After incubation for 40 minutes at room temperature, the reaction was stopped by the addition of 5) 11 of a 3% phosphoric acid solution. 10 pl of the reaction mixture then was spotted onto a P30 filtermat. The filtermat was washed three times for 5 minutes in 75 mM phosphoric acid, once in methanol, dried and counted by scintillation counting. Where the kinase is uninhibited, the kinase phosphorylates a positively charged substrate with radioactive ATP, which then binds to a negatively charged filter membrane. Scintillation counts (radioactivity) directly correlate with kinase activity. […] All profile data less than 100 indicate kinase inhibition while data greater than 100 indicate kinase stimulation.

[3] = target: MAPKAP kinase II (MK2) (Homo sapiens, UniProt P49137); test: Omnia Lysate Assay for MAPKAP-K2: MK2 reaction velocity; type: biochemical; conditions: same assay conditions as Example 1
MAPKAP kinase II (MK2), sequence (P49137 whole entry, species assumed): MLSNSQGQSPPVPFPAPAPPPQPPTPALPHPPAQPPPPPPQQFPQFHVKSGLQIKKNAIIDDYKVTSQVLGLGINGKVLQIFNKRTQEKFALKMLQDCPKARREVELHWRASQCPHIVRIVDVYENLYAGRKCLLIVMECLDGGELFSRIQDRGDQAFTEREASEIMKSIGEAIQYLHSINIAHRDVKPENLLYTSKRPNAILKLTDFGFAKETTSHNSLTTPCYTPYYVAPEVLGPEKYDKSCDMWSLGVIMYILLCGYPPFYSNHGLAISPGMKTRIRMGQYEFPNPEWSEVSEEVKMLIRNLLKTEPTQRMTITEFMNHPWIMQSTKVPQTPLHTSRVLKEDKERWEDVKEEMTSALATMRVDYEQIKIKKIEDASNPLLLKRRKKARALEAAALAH
Method: Using the Omnia™ Lysate Assay for MAPKAP-K2 kit (Invitrogen, Carlsbad, Calif.), the reaction velocity for MK2 was determined in the presence and absence of each of the peptides listed in Table 2. Briefly, inhibitor peptide concentrations at 12.5 μmol, 25 μmol, 50 μmol and 100 μmol were evaluated. The kit contains a proprietary reaction buffer to which the following are added (final concentrations are given): 1 mM ATP, 0.2 mM DTT, 10 μM MAPKAP-K2 Sox-modified peptide substrate, 5 ng MK2, and the peptide inhibitor of interest (final volume of 50 μL). The reactions were performed in the wells of a low protein-binding 96-well plate provided with the kit, and fluorescence readings at 485 nm were taken every 30 seconds for 20 minutes in a Molecular Devices M5 Spectrophotometer. A peptide having the sequence […]
The MK2 inhibition activity of […] [SEQ ID NO: 134] transduction domain was compared with the MK2 inhibition activity of other known transduction domains—[…] [SEQ ID NO: 135] and […] [SEQ ID NO: 190]. The transduction domains were tested for MK2 activity using the same assay conditions as Example 1.
A set of MK2 inhibitor peptides having transduction domains was synthesized (see Table 5). Variants included peptides with the […] [SEQ ID NO: 134] transduction domain and alanine substituted for asparagine, alanine substituted for glycine, or both alanine substitutions in the therapeutic domain. The same peptides with the […] [SEQ ID NO: 135] transduction domain also were prepared. The reaction velocities of these variants were compared to the reaction velocity of a blank with no inhibitor added.

[4] = test system: A549 lung cancer cells; test: Toxicity testing on cancer cell lines (MTT); type: cell-based; conditions: 72 hours, n=4, read-out: Cell Line IC50, A549
Method: (§1) The seven cell lines were: estrogen dependent MCF-7 breast cancer cells, non estrogen dependent MDA 231 breast cancer cells, SF 539 central nervous system cancer cells, HT29 colon cancer cells, Paca 2 pancreatic cancer cells, PC3 prostate cancer cells, and A549 lung cancer cells. For each cell line, exponentially growing cells were trypsinized and seeded into individual wells of a 96-well plate. Cells were maintained in a humidified, 5% CO2 incubator at 37° C. for 24 hours. The next day, fresh media was added along with 1 μl of a stock solution of peptide to give final peptide concentrations of 0.3 μM, 1 μM, 3 μM, 10 μM, 30 μM, and 100 μM (n=4). Doxorubicin was tested as a positive control. After incubating the cells for 72 hours, to each well was added 20 μl of 0.5% MTT {3-([…])-2,5 diphenyl tetrazolium bromide} solution. The plates then were incubated for an additional 4 hours, at which time the absorbance at 570 nm was measured for each well using a microplate reader. The absorbance was plotted as function of peptide concentration, and IC50 values were calculated for each peptide for each cell line.

[5] = test system: HT29 colon cancer cells; test: Toxicity testing on cancer cell lines (MTT); type: cell-based; conditions: 72 hours, n=4, read-out: Cell Line IC50, HT29
Method: as §1

[6] = test system: PC3 prostate cancer cells; test: Toxicity testing on cancer cell lines (MTT); type: cell-based; conditions: 72 hours, n=4, read-out: Cell Line IC50, PC3
Method: as §1

[7] = test system: Paca 2 pancreatic cancer cells; test: Toxicity testing on cancer cell lines (MTT); type: cell-based; conditions: 72 hours, n=4, read-out: Cell Line IC50, Paca 2
Method: as §1

[8] = test system: SF 539 central nervous system cancer cells; test: Toxicity testing on cancer cell lines (MTT); type: cell-based; conditions: 72 hours, n=4, read-out: Cell Line IC50, SF 539
Method: as §1

[9] = test system: estrogen dependent MCF-7 breast cancer cells; test: Toxicity testing on cancer cell lines (MTT); type: cell-based; conditions: 72 hours, n=4, read-out: Cell Line IC50, MCF-7
Method: as §1

[10] = test system: non estrogen dependent MDA 231 breast cancer cells; test: Toxicity testing on cancer cell lines (MTT); type: cell-based; conditions: 72 hours, n=4, read-out: Cell Line IC50, MDA 231
Method: as §1

`CC(C)C[C@H](NC(=O)[C@H](C)NC(=O)[C@H](CCCCN)NC(=O)[C@H](CCCNC(=N)N)NC(=O)[C@H](Cc1ccc(O)cc1)NC(=O)[C@H](CC(C)C)NC(=O)[C@H](CCCNC(=N)N)NC(=O)[C@H](C)NC(=O)[C@H](C)NC(=O)[C@H](CC(C)C)NC(=O)[C@H](CCCCN)NC(=O)[C@H](C)NC(=O)[C@@H](N)Cc1ccccc1)C(=O)N[C@@H](C)C(=O)N[C@@H](CCCNC(=N)N)C(=O)N[C@@H](CCC(N)=O)C(=O)N[C@@H](CC(C)C)C(=O)NCC(=O)N[C@H](C(=O)N[C@@H](C)C(=O)N[C@@H](C)C(=O)O)C(C)C` was tested, and the “Profile-1, AMPK (r)” value [1] was 101 and the activity at 100 µM [2] was 16%.
In the case of `CC(C)C[C@H](NC(=O)[C@H](C)NC(=O)[C@H](CCCCN)NC(=O)[C@H](CCCNC(=N)N)NC(=O)[C@H](Cc1ccc(O)cc1)NC(=O)[C@H](CC(C)C)NC(=O)[C@H](CCCNC(=N)N)NC(=O)[C@H](C)NC(=O)[C@H](C)NC(=O)[C@H](CC(C)C)NC(=O)[C@H](CCCCN)NC(=O)[C@H](C)NC(=O)[C@H](Cc1ccccc1)NC(=O)[C@H](C)NC(=O)[C@@H](N)CCCCN)C(=O)N[C@@H](C)C(=O)N[C@@H](CCCNC(=N)N)C(=O)N[C@@H](CCC(N)=O)C(=O)N[C@@H](CC(C)C)C(=O)NCC(=O)N[C@H](C(=O)N[C@@H](C)C(=O)N[C@@H](C)C(=O)O)C(C)C`, the “Profile-1, AMPK (r)” value [1] is reported as 118 and the activity at 100 µM [2] is reported as 28%.
`CC[C@H](C)[C@H](NC(=O)[C@H](CCCNC(=N)N)NC(=O)[C@H](CCCNC(=N)N)NC(=O)[C@H](CC(C)C)NC(=O)[C@H](Cc1c[nH]c2ccccc12)NC(=O)[C@H](C)NC(=O)[C@H](CCCCN)NC(=O)[C@@H](NC(=O)[C@H](CCCNC(=N)N)NC(=O)[C@H](CCCNC(=N)N)NC(=O)[C@H](CC(C)C)NC(=O)[C@@H](N)Cc1c[nH]c2ccccc12)[C@@H](C)CC)C(=O)N[C@@H](CCCCN)C(=O)N[C@@H](C)C(=O)O` was tested, and the “MK2 inhibition (in words)” value [3] was “inhibited MK2 significantly more than KKKALNRQLGVAA”.
For `N=C(N)NCCC[C@H](NC(=O)[C@H](CCCNC(=N)N)NC(=O)[C@H](CCCNC(=N)N)NC(=O)[C@H](CCC(N)=O)NC(=O)[C@H](CCCNC(=N)N)NC(=O)[C@H](CCCNC(=N)N)NC(=O)[C@H](CCCCN)NC(=O)[C@H](CCCCN)NC(=O)[C@H](CCCNC(=N)N)NC(=O)CNC(=O)[C@@H](N)Cc1ccc(O)cc1)C(=O)O` [reference compound], the “MK2 inhibition (in words)” value [3] was “also inhibit MK2 but not nearly as much as WLRRIKAWLRRIKA”.
WLRRIKA [WLRRIKA] was tested, and the “MK2 inhibition (in words)” value [3] was “same level of inhibition as the no inhibitor control”.
In the case of WLRRIKAHRRIKALARQLGVAA [Peptide 2], the IC50 [4] is reported as 31.9 µM, the IC50 [5] is reported as 26.4 µM and the IC50 [6] is reported as 28.9 µM. It also gave an IC50 [7] of 19.5 µM, an IC50 [8] of 26 µM and an IC50 [9] of 7.8 µM. For the same molecule, the IC50 [10] was 19.9 µM.
Molecule WLRRIKAWLRR [Peptide 3] has an IC50 [4] of 34.3 µM, an IC50 [5] of 20.7 µM and an IC50 [6] of 35.5 µM. The IC50 [7] was 42.5 µM, the IC50 [8] was 22 µM and the IC50 [9] was 13.5 µM. For the same molecule, the IC50 [10] was 17.4 µM.
Work on WLRRIKAWLRRALNRQLGVAA [Peptide 4] yielded an IC50 [4] of 12.5 µM, an IC50 [5] of 11.8 µM and an IC50 [6] of 23.7 µM. For the same molecule, the IC50 [7] was 11.2 µM, the IC50 [8] was 10 µM and the IC50 [9] was 4.4 µM. For the same molecule, the IC50 [10] was 12 µM.
With YARAAARQARA [reference compound] the “MK2 inhibition (in words)” value [3] was “also inhibit MK2 but not nearly as much as WLRRIKAWLRRIKA”.
